# Measured values reported in patent US20240238274A1, “INHIBITORS OF UBIQUITIN SPECIFIC PEPTIDASE 22 (USP22) AND USES THEREOF FOR TREATING DISEASE AND DISORDERS” (Northwestern University, priority 2021, published 2024).
# Legend:
# [1] = test system: Usp22 and Usp21 expression in iTreg cells; experiment: In vitro iTreg cell TGF-β assay, USP mRNA level; type: cell-based; details: TGF-β added, inhibitor 25 μg/mL
# Description: FIG. 8: TGF-β induces expression of Usp22 and Usp21 in Treg cells. A, Visual representation of Tumor Conditioned Media (TCM) experiments. B, iTreg USP mRNA level under TGF-β induction post-polarization. Usp22: n=18-19; Usp21: n=7-8; Usp7: 4-5. C, iTreg USP mRNA level under TGF-β with and without a TGF-β inhibitor. Usp22: n=3-11; Usp21: n=8-18; Usp7: 3-8. D, Treg FoxP3 mRNA level with TGF-β induction (n=10). B-D, All mRNA values calculated relative to WT untreated iTreg cells. E, TGF-β level in B16, LLC1 and EG7 tumor conditioned media (n=3). F-H, Correlation between USP induction and TGF-β level in the tumor conditioned media. Usp22: n=3-10; Usp21: n=3-8; Usp7: n=3-6. I, TGF-β mRNA level of control or TGF-β shRNA treated B16 cells (n=3). J, mRNA level of Usp22 in sorted itTreg cells from mice injected with shRNA treated B 16 cells (n=4). B, D, and I, Two-tailed unpaired t-test was performed to determine statistical significance. C and E Ordinary one-way Anova with multiple comparisons between groups was performed to determine statistical significance. All data are presented as mean±stdev. NS, not significant. *P<0.05, **P<0.01, ***P<0.001, ****P<0.0001.
# Many types of tumors secrete large amounts of TGF-β, which dampens immune responses and promotes metastasis (21, 22). […]
# [2] = test system: USP mRNA level in nTreg and iTreg cells; experiment: In vitro inhibitor assays, USP mRNA level in Treg cells; type: cell-based; details: 24 hours
# Method: FIG. 3: Usp22 and Usp21 are required for FOXP3 stability in nTreg cells under environmental and metabolic stress found in the TME. All mRNA values calculated relative to unchallenged WT Treg cells. A, nTreg USP mRNA level in normoxic (21% O2) verses hypoxic (1% O2) conditions after 24 hours (n=6-13). B, FOXP3 MFI change in 22KO nTreg cells relative to WT nTreg cells after 72 hours in normoxic (21% O2) verses hypoxic (1% O2) conditions (n=5). C, nTreg USP mRNA level after treatment with dMOG for 24 hours (n=6). D, USP mRNA level in nTreg cells after exposure to glucose-restricted (0.5 mM) conditions after 24 hours relative to normal media (11 mM glucose) (n=7-18). E, Relative FOXP3 MFI change in nTreg cells from control and cells cultured under low glucose conditions after 48 hours (n=3). F, nTreg USP mRNA level under amino acid starvation for 24 hours (n=5-9). […]
# Along with the competition for glucose, a scarcity of amino acids within tumors may also alter immune cell function (35). […] So, we treated Treg cells with an inhibitor of mitochondrial ATP synthase, Oligomycin A, and measured USP mRNA levels.
# All nTreg and iTreg cells were plated as described above DMOG (Sigma Catalog #D3695) was administered to the cells in relevant experiments at 1 mM for 24 hours. […] FOXP3 protein level was assessed via flow cytometry following 48 hours of treatment of inhibitors described above. […]
compound,measurement,setting,value
CC(C)(O)c1cc(Nc2cc(Oc3cn(C4CC4)nc3C3CCOCC3)ccn2)ccn1 [LY 3200882],TGF-β-induced increase of Usp22 and Usp21 expression,[1],largely diminished
CC[C@H]1/C=C/C=C/C[C@@H](C)[C@H](O)[C@@](C)(O)C(=O)[C@@H](C)[C@H](O)[C@@H](C)C(=O)[C@@H](C)[C@H](O)[C@@H](C)/C=C/C(=O)O[C@@H]2[C@H](C)[C@H](CC1)O[C@]1(CC[C@H](C)[C@H](C[C@@H](C)O)O1)[C@H]2C [Oligomycin A],USP mRNA level,"[2]; nTreg cells, 1 μM","increased both Usp22 and Usp21, but not Usp7"
"COC(=O)CNC(=O)C(=O)OC [dMOG, dimethyloxalylglycine]",Usp22 mRNA level,"[2]; nTreg and iTreg cells, 1 mM",increased Usp22 mRNA level
